System: formaldehyde-stabilized rabbit erythrocytes
Test: MAC assay (minimum agglutinating concentration)
Format: cell-based
Conditions: 2% v/v suspension of formaldehyde-stabilized rabbit erythrocytes
Description: Enzymol. 83:368-373, 1982. Formaldehyde-treated rabbit erythrocytes, prepared by published procedures (Nowak et al., Biochim. Biophys. […] The MAC was defined as the lectin protein concentration (exclusive of attached chemical compounds) in the highest dilution showing visible agglutination. […] An aliquot of the formaldehyde-treated Rabbit erythrocytes was then pipetted into each well. At low lectin concentrations, there was insufficient lectin to form a network of crosslinked cells and the cells dropped to the bottom of the V-well forming what looks like a dark pin-point circle at the bottom of the plate when viewed from above. However, once the lectin concentration reached the minimum agglutination concentration (MAC), the lectin molecules began crosslinking the saccharide receptors on the erythrocyte surfaces, resulting in a network that cannot settle to the bottom of the V-well forming what looks like a large, opaque, diffuse circle when viewed from above. The lowest concentration that produces the large diffuse circle is the MAC value for a particular formulation.

## concanavalin A [Umodified]
  MAC: <1 µg/mL

Reference: patent US9745355B2, “Binding-site modified lectins and uses thereof” (SmartCells, Inc., priority 2009, dated 2017)
